This note sets out measurements from patent US20230317203A1, “SCREENING METHOD” (University of Leeds, priority 2022, published 2023).

In assay [1] the target is BRISC (Homo sapiens, UniProt P46736+Q15018+Q9NXR7). The assay is described as follows: Mass photometry of BRISC oligomeric state. The conditions noted are these: purified BRISC mixed with inhibitor, FIG. 2B. The class given is binding. The procedure: (§1) Microscope coverslips were prepared as previously described^33. All mass photometry experiments were performed using a One^MP mass photometer (Refeyn Ltd, Oxford, UK). For preliminary BRISC-inhibitor measurements, 1 μM BRISC(FL) was mixed with either DMSO or inhibitor at 330 μM and incubated for 15 minutes on ice. Prior to MP measurement, the BRISC-inhibitor mix was diluted in gel filtration buffer (25 mM HEPES, 150 mM NaCl, 1 mM TCEP) for a final concentration of BRISC at 10 nM (0.05% DMSO). 12 μL of this dilution was used for the final MP measurement, following autofocus stabilisation. […] The BRISC-inhibitor mix was used directly for MP measurement using buffer-free autofocus stabilisation. Movies were recorded for 60 seconds using AcquireMP (Refeyn, UK), and were processed using DiscoverMP (Refeyn, UK). Mass photometry image processing has been previously described^33. Briefly, contrast-to-mass (C2M) calibration was performed using protein standards (66-669 kDa) diluted in gel filtration buffer. […] The mass distribution from each run is in a histogram, where count refers to each landing event and a Gaussian sum is fitted to the data. The relative amount of each species is calculated as the area of each Gaussian, where a refers to the standard deviation of the fitted Gaussian. […] Curves were fitted and EC50 values were calculated using the GraphPad Prism (v8.0) built-in dose-response equation for concentration of agonist vs. response (variable slope).

For assay [2], the system named is BRISC. The assay is described as follows: Mass photometry of BRISC oligomeric state. Type of assay: binding, human. The conditions noted are these: mass photometry. Here is the method:
as §1

The next assay has as its target T1, BRISC(FL) (Homo sapiens, UniProt P46736+Q15018+Q9NXR7).
T1 construct: The four-subunit human BRISC (full-length (FL) and MERIT40ΔN, Abraxas2ΔC) complex was cloned; made in house; host or cells: Spodoptera frugiperda (Sf9) insect cells
Description: Native mass spectrometry of BRISC with inhibitor. Type of assay: binding. To be noted: 10 μM BRISC(FL), 1 mM inhibitor. Here is the method: Samples were buffer exchanged into 500 mM ammonium acetate using Zeba Spin 7K MWCO desalting columns (ThermoFisher). Gold and palladium coated nanospray tips were prepared in-house and mounted on the nano-electrospray ionisation source. Mass spectra were acquired on a Q Exactive Ultra-High Mass Range Hybrid Quadrupole-Orbitrap mass spectrometer (Thermo Fisher), optimised for mass resolution at high m/z ratios. Data were visualised and processed using Mass Lynx (v4.1) and UniDec (v2.7.1).

The target of a further assay is BRISC BRCC36 Ile158Lys (Homo sapiens, UniProt P46736+Q15018+Q9NXR7, I158K). Description: Mass photometry, BRISC mutant BRCC36 Ile158Lys. The class given is binding. To be noted: BRCC36 Ile158Lys (inactive mutant). The procedure: (§2) Microscope coverslips were prepared as previously described^33. All mass photometry experiments were performed using a One^MP mass photometer (Refeyn Ltd, Oxford, UK). For preliminary BRISC-inhibitor measurements, 1 μM BRISC(FL) was mixed with either DMSO or inhibitor at 330 μM and incubated for 15 minutes on ice. Prior to MP measurement, the BRISC-inhibitor mix was diluted in gel filtration buffer (25 mM HEPES, 150 mM NaCl, 1 mM TCEP) for a final concentration of BRISC at 10 nM (0.05% DMSO). 12 μL of this dilution was used for the final MP measurement, following autofocus stabilisation. […] Movies were recorded for 60 seconds using AcquireMP (Refeyn, UK), and were processed using DiscoverMP (Refeyn, UK). […] The relative amount of each species is calculated as the area of each Gaussian, where a refers to the standard deviation of the fitted Gaussian. […] Curves were fitted and EC50 values were calculated using the GraphPad Prism (v8.0) built-in dose-response equation for concentration of agonist vs. response (variable slope).
(§3) The cryo-EM structures of BRISC bound to molecular glues allowed picking of selective mutations to probe the BRISC-compound interaction site and to assess the contribution of each interacting residue for inhibition and gluing activity. […] For the remaining active 13 mutants (FIGS. 11C, 11D) inhibitor IC50s were calculated against BRISC DUB activity. […]

In the next assay the target is BRISC BRCC36 Thr128Pro (Homo sapiens, UniProt P46736+Q15018+Q9NXR7, T128P). Description: Mass photometry, BRISC mutant BRCC36 Thr128Pro. The class given is binding. To be noted: BRCC36 Thr128Pro (inactive mutant). The procedure:
as §2, §3

Molecules are shown by their SMILES.

`O=C(NC1C2CNCC21)c1nn(C(=O)c2c(Cl)cccc2Cl)cc1NC(=O)c1c(Cl)cccc1Cl` (stereo not drawn) [FX-171-C]: at BRISC [1], the “mass photometry counts, 1:1:1:1 complex” value stood at 13% and the “mass photometry counts, dimer” value is given as 52%. The “dimer formation at increasing inhibitor concentration” value in the assay with BRISC [2] was “dose-dependent increase in dimer formation”. At BRISC(FL), the “BRISC species by native mass spectrometry” value is given as “BRISC dimers with a MW consistent with a 4:4:4:4 stoichiometry were observed”. Further, the inhibitor-induced dimerisation result at BRISC BRCC36 Ile158Lys is recorded as “reduction in the inhibitor-induced dimerisation effect”. On BRISC BRCC36 Thr128Pro, the inhibitor-induced dimerisation entry is given as “still formed a dimer”.
